The subject of this assay is L1210 leukemia ip in BDF1 mice, survival T/C. Put plainly: NCI In Vivo Anticancer Drug Screen. Data for tumor model L1210 Leukemia (intraperitoneal) in B6D2F1 (BDF1) mice. To be noted: endpoint: mean survival time, higher = longer survival. The gist of the method: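 Transplantable tumor model; survival measured in treated vs vehicle control mice. Value = treated/control.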

Where [1] appears, read: dose: 100.0 mg/kg/injection, schedule: Q04DX003 (ip), vehicle: Klucel (hydroxypropylcellulose) (HPC).
The mark [2] stands for this setting: dose: 200.0 mg/kg/injection, schedule: Q04DX003 (ip), vehicle: Klucel (hydroxypropylcellulose) (HPC).
The mark [3] stands for this setting: dose: 400.0 mg/kg/injection, schedule: Q04DX003 (ip), vehicle: Klucel (hydroxypropylcellulose) (HPC).
Setting [4] is: dose: 100.0 mg/kg/injection, schedule: Q01DX009 (ip), vehicle: saline.
Setting [5] is: dose: 100.0 mg/kg/injection, schedule: Q04DX003 (ip), vehicle: saline.
[6] abbreviates: dose: 200.0 mg/kg/injection, schedule: Q01DX009 (ip), vehicle: saline.
[7] abbreviates: dose: 200.0 mg/kg/injection, schedule: Q04DX003 (ip), vehicle: saline.
Setting [8] is: dose: 50.0 mg/kg/injection, schedule: Q01DX009 (ip), vehicle: saline.
Where [9] appears, read: dose: 400.0 mg/kg/injection, schedule: Q04DX003 (ip), vehicle: saline.

Inconclusive results and toxic doses are left out.

Turning to `O=P(N1CCCCC1)(N1CC1)N1CC1`, the T/C (dose: 0.5 mg/kg/injection, schedule: Q01DX Z (ip), vehicle: saline) was 117 % of control; the T/C (dose: 2.0 mg/kg/injection, schedule: Q01DX Z (ip), vehicle: saline) was 158 % of control; the T/C (dose: 3.8 mg/kg/injection, schedule: Q01DX015 (ip), vehicle: saline) was 106 % of control; the T/C (dose: 4.0 mg/kg/injection, schedule: Q01DX011 (ip), vehicle: saline) is 113 % of control; the T/C (dose: 5.0 mg/kg/injection, schedule: Q01DX001 (ip), vehicle: saline) is 107 % of control; the T/C (dose: 6.0 mg/kg/injection, schedule: Q01DX Z (ip), vehicle: saline) was 202 % of control. Besides, the T/C reads like this: (dose: 7.5 mg/kg/injection, schedule: Q01DX015 (ip), vehicle: saline) 124 % of control; (dose: 8.0 mg/kg/injection, schedule: Q01DX011 (ip), vehicle: saline) 150 % of control; (dose: 9.0 mg/kg/injection, schedule: Q01DX Z (ip), vehicle: saline) 94 % of control; (dose: 10.0 mg/kg/injection, schedule: Q01DX001 (ip), vehicle: saline) 100 % of control; (dose: 13.5 mg/kg/injection, schedule: Q01DX Z (ip), vehicle: saline) 94 % of control; (dose: 15.0 mg/kg/injection, schedule: Q01DX011 (ip), vehicle: saline) 95 % of control. The T/C (dose: 20.0 mg/kg/injection, schedule: Q01DX001 (ip), vehicle: saline) was 122 % of control; the T/C (dose: 21.0 mg/kg/injection, schedule: Q01DX Z (ip), vehicle: saline) is 114 % of control; the T/C (dose: 30.0 mg/kg/injection, schedule: Q01DX015 (ip), vehicle: saline) is 106 % of control; the T/C (dose: 40.0 mg/kg/injection, schedule: Q01DX001 (ip), vehicle: saline) was 169 % of control.
Turning to `CC#CS(=O)(=O)c1ccccc1`, the T/C was 94 % of control under setting [1], 95 % of control under setting [2] and 98 % of control under setting [3].
For the molecule `C=CCOCC(O)CN(C)CC1CCCO1` (centres undefined), the T/C under setting [4] was 95 % of control, the T/C under setting [5] is 98 % of control, the T/C under setting [6] is 95 % of control and the T/C under setting [7] was 86 % of control.
`O=COc1ccc([N+](=O)[O-])cc1`: the T/C is, setting by setting: (dose: 25.0 mg/kg/injection, schedule: Q01DX009 (ip), vehicle: saline) 98 % of control; under setting [8], 95 % of control; under setting [4], 98 % of control; under setting [5], 101 % of control.
As for `c1cc(-n2nnc3cnccc32)ccn1`, the T/C runs as follows: (dose: 6.25 mg/kg/injection, schedule: Q04DX003 (ip), vehicle: saline) 100 % of control; (dose: 12.5 mg/kg/injection, schedule: Q04DX003 (ip), vehicle: saline) 91 % of control; (dose: 25.0 mg/kg/injection, schedule: Q04DX003 (ip), vehicle: saline) 102 % of control; under setting [5], 86 % of control.
As to `CC(C)C(CN=C(N)N)c1cccc2ccccc12` (centres undefined), the T/C by setting is: (dose: 12.5 mg/kg/injection, schedule: Q01DX009 (ip), vehicle: saline with Tween-80) 100 % of control; (dose: 25.0 mg/kg/injection, schedule: Q01DX009 (ip), vehicle: saline with Tween-80) 103 % of control; (dose: 25.0 mg/kg/injection, schedule: Q04DX002 (ip), vehicle: saline with Tween-80) 100 % of control; (dose: 50.0 mg/kg/injection, schedule: Q01DX009 (ip), vehicle: saline with Tween-80) 91 % of control; (dose: 50.0 mg/kg/injection, schedule: Q04DX002 (ip), vehicle: saline with Tween-80) 100 % of control.
As to `ClC1=C2C=CC=CC2C(Cl)(c2ccccc2)C2C1=C(Cl)c1ccccc1C2(Cl)c1ccccc1` (centres undefined), the T/C reads like this: (dose: 75.0 mg/kg/injection, schedule: Q01DX001 (ip), vehicle: saline) 95 % of control; (dose: 150.0 mg/kg/injection, schedule: Q01DX001 (ip), vehicle: saline) 97 % of control; (dose: 300.0 mg/kg/injection, schedule: Q01DX001 (ip), vehicle: saline) 90 % of control.
Turning to `O=C(O)/C=C/S(=O)(=O)Cc1ccccc1`, the T/C reads like this: under setting [1], 98 % of control; under setting [2], 100 % of control.
As for `CN1CCc2ccc(O)cc2C1`, the T/C was 95 % of control under setting [5] and 95 % of control under setting [7].
On to `Cn1nnc2c1C(=O)c1ccccc1C2=O`, for which the T/C is, setting by setting: (dose: 100.0 mg/kg/injection, schedule: Q04DX003 (ip), vehicle: other) 97 % of control; (dose: 200.0 mg/kg/injection, schedule: Q04DX003 (ip), vehicle: other) 97 % of control.
As for `c1ccncc1`, the T/C (dose: 6.25 mg/kg/injection, schedule: Q01DX009 (ip), vehicle: alcohol) was 96 % of control; the T/C (dose: 12.5 mg/kg/injection, schedule: Q01DX009 (ip), vehicle: alcohol) was 93 % of control; the T/C (dose: 25.0 mg/kg/injection, schedule: Q01DX009 (ip), vehicle: alcohol) is 93 % of control; the T/C (dose: 100.0 mg/kg/injection, schedule: Q01DX009 (ip), vehicle: Klucel (hydroxypropylcellulose) (HPC)) was 88 % of control; the T/C under setting [4] was 93 % of control; the T/C under setting [1] was 101 % of control. Further, the T/C is, setting by setting: under setting [5], 101 % of control; under setting [6], 93 % of control; under setting [2], 106 % of control; under setting [7], 89 % of control; (dose: 400.0 mg/kg/injection, schedule: Q01DX009 (ip), vehicle: saline) 86 % of control; under setting [3], 95 % of control. Also, the T/C under setting [9] is 91 % of control.
As for `Cc1c2ccccc2c(CNCCSCCCl)c2ccc3ccccc3c12`, the T/C was 119 % of control under setting [8]; 109 % of control (dose: 150.0 mg/kg/injection, schedule: Q01DX009 (ip), vehicle: saline); 94 % of control (dose: 167.0 mg/kg/injection, schedule: Q01DX009 (ip), vehicle: saline).
Turning to `Clc1nc2ccccc2s1.Clc1nc2ccccc2s1.Clc1nc2ccccc2s1.Clc1nc2ccccc2s1.[Cl][Rh][Cl]`, the T/C reads like this: (dose: 3.13 mg/kg/injection, schedule: Q04DX003 (ip), vehicle: distilled water + Tween-80) 94 % of control; (dose: 6.25 mg/kg/injection, schedule: Q04DX003 (ip), vehicle: distilled water + Tween-80) 96 % of control; (dose: 12.5 mg/kg/injection, schedule: Q04DX003 (ip), vehicle: distilled water + Tween-80) 96 % of control; (dose: 25.0 mg/kg/injection, schedule: Q04DX003 (ip), vehicle: distilled water + Tween-80) 102 % of control; (dose: 50.0 mg/kg/injection, schedule: Q04DX003 (ip), vehicle: distilled water + Tween-80) 103 % of control; (dose: 100.0 mg/kg/injection, schedule: Q04DX003 (ip), vehicle: distilled water + Tween-80) 102 % of control. Also, the T/C (dose: 200.0 mg/kg/injection, schedule: Q04DX003 (ip), vehicle: distilled water + Tween-80) is 103 % of control.
With `N#Cc1ccc(/C=N/N2CCN(/N=C/c3ccc(C#N)cc3)CC2)cc1`, the T/C was 96 % of control (dose: 100.0 mg/kg/injection, schedule: Q01DX001 (ip), vehicle: carboxymethylcellulose (CMC)); 91 % of control (dose: 200.0 mg/kg/injection, schedule: Q01DX001 (ip), vehicle: carboxymethylcellulose (CMC)); 94 % of control (dose: 400.0 mg/kg/injection, schedule: Q01DX001 (ip), vehicle: carboxymethylcellulose (CMC)).
As to `Oc1ccccc1C=Nc1cccc(Cl)c1Cl`, the T/C is 91 % of control under setting [1], 98 % of control under setting [2] and 100 % of control under setting [3].
As for `Nc1ccc2c(ccc3cccc[n+]32)c1`, the T/C was 105 % of control (dose: 100.0 mg/kg/injection, schedule: Q01DX001 (ip), vehicle: saline) and 108 % of control (dose: 200.0 mg/kg/injection, schedule: Q01DX001 (ip), vehicle: saline).
Take `O=C(O)C1CC2C=CC1C2` (centres undefined): the T/C was 101 % of control (dose: 100.0 mg/kg/injection, schedule: Q01DX009 (ip), vehicle: saline with Tween-80); 102 % of control under setting [5]; 101 % of control (dose: 200.0 mg/kg/injection, schedule: Q01DX009 (ip), vehicle: saline with Tween-80); 94 % of control under setting [7]; 102 % of control (dose: 400.0 mg/kg/injection, schedule: Q01DX009 (ip), vehicle: saline with Tween-80); 105 % of control under setting [9].
For `CCOP(=O)(OCC)OC(=O)N(CC)CC`, the T/C is 112 % of control (dose: 100.0 mg/kg/injection, schedule: Q04DX002 (ip), vehicle: saline) and 120 % of control (dose: 200.0 mg/kg/injection, schedule: Q04DX002 (ip), vehicle: saline).

Source of the values: PubChem BioAssay AID248 (DTP/NCI, 2004).
